From patent publication US20050031537A1, “Multifunctional COX-2 inhibitors” (priority 2002, published 2005)

Columns and labels:
Nrf-2 = assay: Western and Northern blotting for expression of Nrf-2 (test (g)); assay type: cell-based, human; conditions: positive in 184B5, 184B5/HER, HCA7, HCT116, SKBR3, BT474 and CaSki cells
Description: We turn now to criterion (g), i.e. at least 50% increase in expression of Nrf-2. […] 13, 2001).
Western blotting and Northern blotting techniques were used to evaluate the expression of Nrf-2. The expression of Nrf-2 was evaluated in HCA7, HCT116, SKBR3, CaSki, 184B5/HER, 184B5 and BT474 cells. 5×10^6cells were used to treat either vehicle alone or the test compound. The Western blotting analysis was performed as described above except anti-Nrf-2 antibody was used to probe the blot. The antibody was obtained from Santa Cruz Biotechnology, Inc. CA. Northern blotting for Nrf-2 was performed as described above and cDNA for Nrf-2 as described in Gong, P., et al., J.Biol Chem 20; 276:27018-27025 (2001) was used as a probe.

PPRE luciferase = PPRE luciferase activation, transient transfection reporter assay (test (a)); assay type: cell-based, human; conditions: positive in 184B5, 184B5/HER, HCA7, HCT116, SKBR3 and BT474 cells; 24 h treatment
From the text: We turn now to criterion (a), that is activation of PPRE luciferase by at least 100%. PPRE-luciferase refers to a DNA construct containing the peroxisome proliferator activated receptor (PPAR) binding element joined to luciferase. Cells are transfected with PPRE-luciferase DNA. Ligands of PPAR induce luciferase activity. The ability of a test compound to stimulate PPRE-luciferase signifies that the test compound activates PPAR-mediated gene transcription. PPRE means peroxisome proliferator response element and the method by which PPRE-luciferase is constructed is described in Schoonjans, K., et al, J. Biol. Chem. 270, No. 33, 19269-19276 (Aug. 18, 1995). Use of PPRE-luciferase in a transient transfection to measure increase in promoter activity is disclosed in Subbaramaiah, K. et al, J. Biol. Chem. 270, No. 15, 12440-12448 (Apr. 13, […]).
For each well, 1.8 μg of PPRE3-tk-luciferase construct plasmid DNA (described in Forman, B. M., et al, Cell 83, 803 (1995)) plus 0.2 μg of pSV-β-galactosidase were introduced into cells using 8 μg of LipofectAMINE as per the manufacturer's instructions (Invitrogen, CA). After 7 h of incubation, the medium was replaced with basal medium. After transfection, cells were treated with test compound for 24 h. Reporter activities which include luciferase and β-galactosidase were measured in cellular extract 24 h later. Six wells were used for each of the conditions. Luciferase activity represents data that have been normalized with β-galactosidase.
The luciferase assay was performed as per the BD Pharmingen assay reagents. The Enhanced Luciferase Assay Kit provides a firefly luciferase substrate formulation (Substrates A and B) and cell lysis buffer intended for use in measuring luciferase expressed by transfected cells. Media from cell culture plates was removed and rinsed twice with phosphate buffered saline. Enough 1X cell lysis buffer was added to cover cells and incubated at room temperature for 15-20 min. Cells were dislodged by scraping and transferred to microcentrifuge tubes. […] 20-100 μl cell extract was placed into an assay cuvette. One automatic injector type luminometer is used for assay. Manually 100 μl of Substrate A was added to the assay cuvette and automatically 100 μl of Substrate B was injected. Measurements were performed using a luminometer, for a measurement time of 10 seconds.
The β-galactosidase assay was performed as follows:
50 μl of cell lysate from above was incubated with 50 μl of o-nitrophenyl-β-D-galactoside (ONPG; 4 mg/mL) in Z buffer, (Na2HPO4.7H2O (0.06M), NaH2PO4.H2O (0.04M), 1M KCl (0.01M), 1M MgSO4 (0.001M), β-mercaptoethanol (BME) (0.05M) pH 7.0). The reaction was stopped after sufficient yellow color has developed. The yellow color developed is measured at A420 […].

EGFR = assay: Western blotting for expression of EGFR (test (b)); assay type: cell-based, human; conditions: positive in 184B5, 184B5/HER, 1483, LNCaP, HeLa and CaSki cells; 24 h; Western blot
From the text: (§1) We turn now to the criterion (b), that is at least 50% decrease in level of or 50% downregulation of expression of Class I family of receptors tyrosine kinase. The Class I family of receptors tyrosine kinase is described in Reese, M. D., et al Stem Cells 15, pages 1-8 (1997), the whole of which in incorporated herein by reference. Members of the family include HER-2/neu, HER-3, HER-4 and epidermal growth factor receptor (EGFR) and are single-chain membrane spanning proteins which have significant homology to one another including about 80% amino acid identity in the tyrosine kinase domain.
Epidermal growth factor receptor (EGFR) is a 170 kDA glycoprotein. […] After ligand binding, EGFR undergoes dimerization which is essential for activation of its enzymatic kinase activity. EGFR is thus autophospliorylated and transphosphorylated on tyrosine residues, and the phosphorylated residues become the site of association of effector proteins. Overexpressed EGFR is intimately involved in modulating the epidermal growth factor growth signal and is considered as likely to confer a growth advantage. This conclusion is supported by the observation that tumor growth in nude mice is inhibited by treatment with anti-EGFR antibodies and tumorigenicity in nude mice is inhibited through blockage of the tyrosine kinase activity of the receptor.
(§2) To evaluate the expression of Class I family of receptors tyrosine kinase (EGFR, HER-2/neu), Western blotting can be performed. Antibodies for EGFR and HER-2/neu can be obtained from Santa Cruz Biotechnology, Inc.
(§3) Expression of EGFR (performed in 184B5, 184B5/HER, 1483, LNCaP, HeLa and CaSki cells)and HER-2/neu (performed in 184B5/HER, SKBR3 and BT474 cells) was assessed in cells after treatment with test compound for 24 hours. 5×10^6 cells were used for the treatment. Western blotting technique was used to assess the expression levels in cells treated with the test compound compared to vehicle alone. Western blotting was carried out as follows:
(§4) Cell lysates were prepared by treating cells with lysis buffer (150 mM NaCl, 100 mM Tris (pH 8.0), 1% Tween 20, 50 mM diethyldithiocarbamate, 1 mM EDTA, 1 mM phenylmethylsulfonyl fluoride, 10 μg/ml aprotinin, 10 μg/ml trypsin inhibitor and 10 μg/ml leupeptin). Lysates were sonicated for 20 s on ice and centrifuged at 10,000×g for 10 min to sediment the particulate material. The protein concentration of the supernatant was measured by the method of Lowry, O. H., et al., J. Biol. Chem. 193, 265-275 (195 1). SDS/PAGE was performed under reducing conditions on 10% polyacrylamide gels as described by Laemmli, U.K., Nature (Lond.) 227, 680-685 (1970). The resolved proteins were transferred onto nitrocellulose sheets as detailed by Towbin, H. et al., Proc. Natl. Acad. Sci. USA 76, 4350-4354 (1979). The nitrocellulose membrane was then incubated with anti-EGFR antiserum or anti-HER-2/neu antiserum. Secondary antibody to IgG conjugated to horseradish peroxidase was used. The various antisera were purchased from Santa Cruz Biotechnology, Inc., CA. The blots were probed with the Renaissance Western blot detection system according to the manufacturer's instructions (PerkinElmer Life Sciences, Boston, Mass.).

cyclin D1 = assay: Western blotting for expression of cyclin D1 (test (c)); assay type: cell-based, human; conditions: positive in 184B5, 184B5/HER cells; 24 h; Western blot
Description: Cyclin D1 is a protein that is important in regulating cell proliferation and is described in Ortega, S., et al, Biochimica et Biophysica Acta 1602, 73-87, (2002), the whole of which is incorporated by reference. […] Effects on expression of cyclin D1 was investigated in 184B5, 184B5/HER, HCA7, HCT116, SKBR3 and BT474 cells. The expression was assessed in cells after treatment with test compound or vehicle using 5×10^4 cells for 24 hours. Western blotting technique was used as follows to assess the expression levels of cyclin D1 in cells treated with the test compound and compared to levels in cells treated with vehicle alone. Cell lysates were prepared by treating cells with lysis buffer as described above. […] The resolved proteins were transferred onto nitrocellulose sheets. The nitrocellulose membrane was then incubated with anti-cyclin D1 antiserum. Secondary antibody to IgG conjugated to horseradish peroxidase was used. The various antisera were purchased from Santa Cruz Biotechnology, Inc., CA. The blots were probed with the Renaissance Western blot detection system according to the manufacturer's instructions (PerkinElmer Life Sciences, Boston, Mass.).

[1] = tested on: HPV16 oncoproteins E6 and E7; assay: Western and Northern blotting for HPV16 oncoproteins E6 and E7 (test (d)); assay type: cell-based, human papillomavirus; conditions: positive in CaSki and SiHa cells
Description: We turn now to the criterion (d), that is at least 50% downregulation of expression of HPV16 oncoproteins E6 and E7.
Protein E6 and E7 which are expressed by HPV16 are believed to play a major role in carcinogenesis.
Western blotting and Northern blotting techniques were used to evaluate the expression of HPV E6 and E7 proteins. The cell lines used for the study were CaSKi and SiHa. The cells were treated with the test compound and cell lysate was obtained as described above and subjected to Western blotting analysis. The Western blotting analysis was performed as described above except anti-HPV 16 E7 antibody was used to probe the blot. The antibody was obtained from Santa Cruz Biotechnology, Inc. CA. For Northern blotting, total cellular RNA was isolated from cell monolayers using an RNA isolation kit from QIAGEN Inc. after treatment with the test compound. 10 μg of total cellular RNA per lane were electrophoresed in a formaldehyde-containing 1.2% agarose gel and transferred to nylon-supported membranes. After baking, membranes were prehybridized overnight in a solution containing 50% formamide, 5×sodium chloride-sodium phosphate-EDTA buffer (SSPE), 5×Denhardt's solution, 0.1% SDS and 100 μg/ml single-stranded salmon sperm DNA and then hybridized for 12 h at 42° C. with radiolabeled cDNA probes for human HPV16 E6 or E7 cDNAs and 18S rRNA. E6 and E7 (as described in Woodworth, C. D., Cancer Res. 16, 4397-4402 (2000)) and 18S rRNA probes were labeled with [^32P]-CTP by random priming. After hybridization, membranes were washed twice for 20 min at room temperature in 2×SSPE-0.1% SDS, twice for 20 min in the same solution at 55° C., and twice for 20 min in 0.1×SSPE-0.1% SDS at 55° C. Washed membranes were then subjected to autoradiography.

[2] = Patient with cervical intraepithelial neoplasia, HPV 16 detected (Example VIII); assay type: in vivo, human; conditions: person, 0.5% in a cream on sponge/cervical cap, six months
From the text: A person presents to their gynecologist for evaluation. […] On biopsy, the patient is found to have cervical intraepithelial neoplasia. HPV 16 is detected. […] The SC-236 is discontinued with no recurrence of cervical intraepithelial neoplasia.

HER-2/neu = assay: Western blotting for expression of HER-2/neu (test (b)); assay type: cell-based, human; conditions: positive in 184B5/HER, BT474 and SKBR3 cells; 24 h; Western blot
From the text: as §1
HER-2/neu (erbB-2) gene product is a 185-kDA transmembrane receptor tyrosine kinase that is described in some detail in said Reese et al publication and overexpression thereof has been associated with tumor growth in several kinds of cancer.
as §2, §3, §4

[3] = Patient with atherosclerosis (Example VI); assay type: in vivo, human; conditions: person one, 200 mg bid
From the text: patient one presents with symptoms of chest discomfort on exertion and is diagnosed with atherosclerosis. […] The progression of the atherosclerosis stops.

Structure (SMILES) | Test (g) at least 50% increase in expression of Nrf-2 (Nrf-2) | Test (a) activation of PPRE luciferase by at least 100% (PPRE luciferase) | Test (b) EGFR: at least 50% decrease in level of or 50% downregulation of expression (EGFR) | Test (c) at least 50% downregulation of expression of cyclin D1 (cyclin D1) | Test (d) at least 50% downregulation of expression of HPV16 oncoproteins E6 and E7 [1] | repeat biopsy finding of cervical intraepithelial neoplasia [2] | Test (b) HER-2/neu: at least 50% decrease in level of or 50% downregulation of expression (HER-2/neu) | progression of the atherosclerosis [3]
COc1ccc2c(c1)c(CC(=O)Nc1ccc(NC(C)=O)cc1)c(C)n2C(=O)c1ccc(Cl)cc1 [Indomethacin Analog 5] | + (A plus sign in the table indicates a positive result, that is meeting the test for each cell line as indicated above as providing a positive result) | + (A plus sign in the table indicates a positive result, that is meeting the test for each cell line as indicated above as providing a positive result) | + (A plus sign in the table indicates a positive result, that is meeting the test for each cell line as indicated above as providing a positive result) | + (A plus sign in the table indicates a positive result, that is meeting the test for each cell line as indicated above as providing a positive result) | – | – | – | –
COc1ccc(-n2nc(C(F)(F)F)cc2-c2ccc(Cl)cc2)cc1 [SC-560, 5-(4-chlorophenyl)-1-(4-methoxyphenyl)-3-(trifluoromethyl)-1H-pyrazole] | – | – | – | – | + (A plus sign in the table indicates a positive result, that is meeting the test for each cell line as indicated above as providing a positive result) | no evidence of cervical intraepithehal neoplasia | + (A plus sign in the table indicates a positive result, that is meeting the test for each cell line as indicated above as providing a positive result) | stops
